Experimental data as given in ChEMBL document CHEMBL1151541, “Modified thrombin receptor-agonist peptide ligands. Synthesis and conformational analysis of analogs of the N-terminal tripeptide region” (1995).
Numbered stars: 1 amine (or outer) side, 2 acyl side, 3 side chain; on linkers, the order of the positions; unused ones are H or OH. Square brackets hold non-standard residues; d marks the D form. Peptide text beside a SMILES is read from it. * marks the point of attachment. ξ: configuration not given here. X2 = N[C@@H](CO)C(=O)CN([C@@H](Cc1ccccc1)C(=O)[*:2])[*:1]; X3 = C[C@@H](c1ccccc1)[C@H](N[*:1])C(=O)[*:2]; NMe2Phe = CN(C)[C@@H](Cc1ccccc1)C(=O)*; NEtPhe = CCN[C@@H](Cc1ccccc1)C(=O)O; X1 = CCN(CC)[C@@H](Cc1ccccc1)C(=O)*; NMeF = CN[C@@H](Cc1ccccc1)C(=O)O; Tic = O=C(O)[C@@H]1Cc2ccccc2CN1; Aib = CC(C)(N)C(=O)O; Propionyl = CCC(=O)*; Butyryl = CCCC(=O)*; ξLac = CC(O)C(=O)O; For = O=C*

Organism: Homo sapiens
Assay: Agonist activity in human platelet aggregation
Type: functional
Conditions: read-out: ED50 (the source's name)

Row | Compound | EC50 [µM]
1 | CNC(=O)C[C@H](NC(=O)[C@H](CCCN=C(N)N)NC(=O)[C@H](CC(C)C)NC(=O)[C@H](CC(C)C)NC(=O)[C@H](Cc1ccccc1)NC(=O)C(C)O)C(=O)O (some centres undefined) (H-[ξLac]FLLRD(NHMe)-OH) | 49
2 | CC(C)C[C@H](NC(=O)[C@H](CC(C)C)N(C)C(=O)[C@H](Cc1ccccc1)NC(=O)[C@@H](N)CO)C(=O)N[C@@H](CCCN=C(N)N)C(=O)N[C@@H](CC(N)=O)C(=O)O | 70
3 | CC(C)C[C@H](NCC(=O)[C@H](Cc1ccccc1)NC(=O)[C@@H](N)CO)C(=O)N[C@@H](CC(C)C)C(=O)N[C@@H](CCCN=C(N)N)C(=O)N[C@@H](CC(N)=O)C(=O)O | > 1000
4 | CC(C)C[C@H](NC(=O)[C@H](CC(C)C)NC(=O)[C@H](Cc1ccccc1)NC(=O)[C@@H](N)CO)C(=O)N[C@@H](CCCN=C(N)N)C(=O)N[C@@H](CC(N)=O)C(=O)O | 0.92
5 | CC(C)C[C@H](NC(=O)[C@H](CC(C)C)NC(=O)[C@H](Cc1ccccc1)N(C)C(=O)[C@@H](N)CO)C(=O)N[C@@H](CCCN=C(N)N)C(=O)N[C@@H](CC(N)=O)C(=O)O | > 1000
6 | CC(C)C[C@H](NC(=O)[C@H](Cc1ccccc1)NCC(=O)[C@@H](N)CO)C(=O)N[C@@H](CC(C)C)C(=O)N[C@@H](CCCN=C(N)N)C(=O)N[C@@H](CC(N)=O)C(=O)O (H-[X2]LLRN-OH) | 382
7 | Ac-FLLRN-OH | 84.5
8 | CC(C)C[C@H](NC(=O)[C@@H]1Cc2ccccc2CN1C(=O)[C@H](Cc1ccccc1)NC(=O)[C@@H](N)CO)C(=O)N[C@@H](CCCN=C(N)N)C(=O)N[C@@H](CC(N)=O)C(=O)O (H-SF[Tic]LRN-OH) | 4.6
9 | H-SFGLRN-OH | 14.8
10 | CC(C)C[C@H](NC(=O)[C@H](CC(C)C)NC(=O)[C@](C)(Cc1ccccc1)NC(=O)[C@@H](N)CO)C(=O)N[C@@H](CCCN=C(N)N)C(=O)N[C@@H](CC(N)=O)C(=O)O | 169
11 | CCN(CC)[C@@H](Cc1ccccc1)C(=O)N[C@@H](CC(C)C)C(=O)N[C@@H](CC(C)C)C(=O)N[C@@H](CCCN=C(N)N)C(=O)N[C@@H](CC(N)=O)C(=O)O (X1-LLRN-OH) | > 1000
12 | CCCC(=O)N[C@@H](Cc1ccccc1)C(=O)N[C@@H](CC(C)C)C(=O)N[C@@H](CC(C)C)C(=O)N[C@@H](CCCN=C(N)N)C(=O)N[C@@H](CC(N)=O)C(=O)O (Butyryl-FLLRN-OH) | 75.1
13 | CN[C@@H](Cc1ccccc1)C(=O)N[C@@H](CC(C)C)C(=O)N[C@@H](CC(C)C)C(=O)N[C@@H](CCCN=C(N)N)C(=O)N[C@@H](CC(N)=O)C(=O)O (H-[NMeF]LLRN-OH) | > 1000
14 | CC(C)C[C@H](NC(=O)[C@H]1CCCN1C(=O)[C@@H](NC(=O)[C@@H](N)CO)[C@@H](C)c1ccccc1)C(=O)N[C@@H](CCCN=C(N)N)C(=O)N[C@@H](CC(N)=O)C(=O)O | 216
15 | CC(C)C[C@H](NC(=O)[C@H]1CCCN1C(=O)[C@H](Cc1ccccc1)NC(=O)[C@@H](N)CO)C(=O)N[C@@H](CCCN=C(N)N)C(=O)N[C@@H](CC(N)=O)C(=O)O | 5.3
16 | CC(C)C[C@H](NC(=O)[C@H]1CCCN1C(=O)[C@@H](NC(=O)[C@@H](N)CO)[C@H](C)c1ccccc1)C(=O)N[C@@H](CCCN=C(N)N)C(=O)N[C@@H](CC(N)=O)C(=O)O | 1.6
17 | CC(C)C[C@H](NC(=O)[C@H](CC(C)C)NC(=O)[C@@H](NC(=O)[C@@H](N)CO)[C@H](C)c1ccccc1)C(=O)N[C@@H](CCCN=C(N)N)C(=O)N[C@@H](CC(N)=O)C(=O)O | 2
18 | CC(C)C[C@H](NC(=O)C(C)(C)NC(=O)[C@H](Cc1ccccc1)NC(=O)[C@@H](N)CO)C(=O)N[C@@H](CCCN=C(N)N)C(=O)N[C@@H](CC(N)=O)C(=O)O (H-SF[Aib]LRN-OH) | > 1000
19 | CC(C)C[C@H](NC(=O)[C@H](Cc1ccccc1)NC=O)C(=O)N[C@@H](CC(C)C)C(=O)N[C@@H](CCCN=C(N)N)C(=O)N[C@@H](CC(N)=O)C(=O)O (For-FLLRN-OH) | 62.4
20 | CC(C)C[C@H](NC(=O)[C@H](CC(C)C)NC(=O)[C@@H](NC(=O)[C@@H](N)CO)[C@@H](C)c1ccccc1)C(=O)N[C@@H](CCCN=C(N)N)C(=O)N[C@@H](CC(N)=O)C(=O)O (H-S[X3]LLRN-OH) | 27
21 | CCC(=O)N[C@@H](Cc1ccccc1)C(=O)N[C@@H](CC(C)C)C(=O)N[C@@H](CC(C)C)C(=O)N[C@@H](CCCN=C(N)N)C(=O)N[C@@H](CC(N)=O)C(=O)O (Propionyl-FLLRN-OH) | 35
22 | CCN[C@@H](Cc1ccccc1)C(=O)N[C@@H](CC(C)C)C(=O)N[C@@H](CC(C)C)C(=O)N[C@@H](CCCN=C(N)N)C(=O)N[C@@H](CC(N)=O)C(=O)O (H-[NEtPhe]LLRN-OH) | > 1000
23 | CC(C)C[C@H](NC(=O)[C@H](CC(C)C)NC(=O)[C@@H]1Cc2ccccc2CN1C(=O)[C@@H](N)CO)C(=O)N[C@@H](CCCN=C(N)N)C(=O)N[C@@H](CC(N)=O)C(=O)O (H-S[Tic]LLRN-OH) | > 1000
24 | CC(C)C[C@H](NC(=O)[C@H](CC(C)C)NC(=O)[C@H](Cc1ccccc1)N(C)C)C(=O)N[C@@H](CCCN=C(N)N)C(=O)N[C@@H](CC(N)=O)C(=O)O (NMe2Phe-LLRN-OH) | > 1000
